In patent US5523315A, “N-(hydroxyethyl)butanediamide derivatives” (Bio-Mega/Boehringer Ingelheim Research Inc., priority 1993, dated 1996):

target: T1, human renin (Homo sapiens, UniProt P00797); experiment: plasma renin assay (inhibition of human renin; angiotensin I generated, measured by radioimmunoassay); assay type: biochemical; settings: human plasma pool, pH 6.0, 2 h incubation at 37°
T1 construct: A human plasma pool is used as the source of both the substrate (angiotensinogen) and the enzyme (renin); from tissue; host or cells: pooled human plasma
T1 sequence (P00797 67-406): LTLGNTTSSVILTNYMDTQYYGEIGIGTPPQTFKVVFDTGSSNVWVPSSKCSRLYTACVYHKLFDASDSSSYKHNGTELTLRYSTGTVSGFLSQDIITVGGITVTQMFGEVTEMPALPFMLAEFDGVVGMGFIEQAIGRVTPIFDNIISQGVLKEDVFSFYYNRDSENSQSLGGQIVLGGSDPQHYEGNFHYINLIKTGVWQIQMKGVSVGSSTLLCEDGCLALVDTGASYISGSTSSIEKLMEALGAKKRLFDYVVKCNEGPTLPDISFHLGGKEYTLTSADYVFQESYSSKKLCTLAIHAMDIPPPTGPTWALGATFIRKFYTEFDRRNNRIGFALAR
Protocol: The assay is performed as follows: The test compound (i.e. the inhibitor) is dissolved in dimethylsulfoxide (1 mM stock solution) and diluted with an aqueous buffer solution of 270 mM 2-(N-morpholino)ethanesulfonic acid and 1% human serum albumin (pH 5.85, also containing dimercaprol and 8-hydroxyquinoline sulfate in accordance with the instructions of the RIA kit noted below) to give an assay mixture in which the final dimethylsulfoxide content is 1% (v/v).
A human plasma pool is used as the source of both the substrate (angiotensinogen) and the enzyme (renin). The reaction is initiated by the addition of 50 μL of human plasma pool to 50 μL of various concentrations of inhibitor in the 1% dimethylsulfoxide assay buffer. The plasma renin activity is measured by the amount of angiotensin I generated at pH 6.0 following a 2 h incubation at 37°.
Quantitation of angiotensin I is performed by radioimmunoassay (RIA kit from New England Nuclear-Dupont, Mississauga, ON, Canada). The enzymatic activity of renin is expressed in ng of angiotensin I generated (/mL/2 h). The extent of inhibition of the reaction is determined from the amount of angiotensin I generated in reference to a control prepared without inhibitor. Nonlinear regression analysis is used to calculate the IC50 values, i.e. the molar concentration of the test compound required to cause a 50% inhibition of the enzyme activity.

Q: With CC(C)C[C@H](O)[C@H](O)[C@H](CC1CCCCC1)NC(=O)[C@@H](CC(=O)NCC(O)c1ccccn1)CC1CC1 (mixture of isomers) [Compound 22, N^4-[2(R,S)-hydroxy-2-(2-pyridinyl)ethyl]-N^1-[1(S)-(cyclohexylmethyl)-2(R),3(S)-dihydroxy-5-methylhexyl]-2(R)-(cyclopropylmethyl)butanediamide] as the molecule, how does the IC50 read?
A: The IC50 was 170 nM.

Q: Which IC50 does the source give for CC(C)C[C@H](O)[C@H](O)[C@H](CC1CCCCC1)NC(=O)[C@@H](CC(=O)N(CC(=O)N(C)C)CC(O)C1CCCCC1)Cc1cscn1 (mixture of isomers) [Compound 42, N^4-[2-cyclohexyl-2(R,S)-hydroxyethyl]-N^4-[2-(dimethylamino)-2-oxoethyl]-N^1-[1(S)-(cyclohexylmethyl)-2(R),3(S)-dihydroxy-5-methylhexyl]-2(R)-(4-thiazolylmethyl)butanediamide] here?
A: Its IC50 is 16 nM.

Q: Which IC50 does the source give for CC(C)C[C@H](O)[C@H](O)[C@H](CC1CCCCC1)NC(=O)[C@@H](CC(=O)N(CC(=O)N(C)C)CC(O)c1ccccc1)Cc1cscn1 (mixture of isomers) [Compound 44, N^4-[2-(dimethylamino)-2-oxoethyl]-N^4-[2(R,S)-hydroxy-2-phenylethyl]-N^1-[1(S)-(cyclohexylmethyl)-2(R),3(S)-dihydroxy-5-methylhexyl]-2(R)-(4-thiazolylmethyl)butanediamide] here?
A: Its IC50 is 10 nM.

Q: How did the IC50 turn out when CC(C)C[C@H](O)[C@H](O)[C@H](CC1CCCCC1)NC(=O)[C@@H](CC(=O)N(CC(C)O)CC1CCCCC1)Cc1cscn1 (single isomer, unassigned) [Compound 39, N^4-(cyclohexylmethyl)-N^4-[2(R or S)-hydroxypropyl]-N^1-[1(S)-(cyclohexylmethyl)-2(R),3(S)-dihydroxy-5-methylhexyl]-2(R)-(4-thiazolylmethyl)butanediamide] was run?
A: The IC50 was 8.7 nM.

Q: Which IC50 does the source give for CC(C)C[C@H](O)[C@H](O)[C@H](CC1CCCCC1)NC(=O)[C@@H](CC(=O)N(CC(C)O)CC1CCCCC1)Cc1cscn1 (single isomer, unassigned) [Compound 40, N^4-(cyclohexylmethyl)-N^4-[2(S or R)-hydroxypropyl]-N^1-[1(S)-(cyclohexylmethyl)-2(R),3(S)-dihydroxy-5-methylhexyl]-2(R)-(4-thiazolylmethyl)butanediamide] here?
A: The IC50 was 11 nM.

Q: CC(C)C[C@H](O)[C@H](O)[C@H](CC1CCCCC1)NC(=O)[C@@H](CC(=O)N(Cc1ccccc1)CC1(O)CCCCC1)CC1CC1 [Compound 1, N^4-benzyl-N^4-[(1-hydroxycyclohexyl)methyl]-N^1-[1(S)-(cyclohexylmethyl)-2(R),3(S)-dihydroxy-5-methylhexyl]-2(R)-(cyclopropylmethyl)butanediamide] was tested. Which IC50 did it give?
A: Its IC50 is 36 nM.

Q: Which IC50 does the source give for CCC[C@H](CC(=O)N(Cc1ccccc1)CC1(O)CCCCC1)C(=O)N[C@@H](CC1CCCCC1)[C@@H](O)[C@@H](O)CC(C)C [Compound 2, N^4-benzyl-N^4-[(1-hydroxycyclohexyl)methyl]-N^1-[1(S)-(cyclohexylmethyl)-2(R),3(S)-dihydroxy-5-methylhexyl]-2(R)-propylbutanediamide] here?
A: The IC50 was 27 nM.

Q: How did the IC50 turn out when CC(C)C[C@H](O)[C@H](O)[C@H](CC1CCCCC1)NC(=O)[C@@H](CC(=O)N(Cc1ccc2c(c1)OCO2)CC1(O)CCCCC1)CC1CC1 [Compound 3, N^4-[(1-hydroxycyclohexyl)methyl]-N^4-[(4,5-methylenedioxyphenyl)methyl]-N^1-[1(S)-(cyclohexylmethyl)-2(R),3(S)-dihydroxy-5-methylhexyl]-2(R)-(cyclopropylmethyl)butanediamide] was run?
A: The IC50 was 21 nM.

Q: With CC(C)C[C@H](O)[C@H](O)[C@H](CC1CCCCC1)NC(=O)[C@@H](CC(=O)N(Cc1ccccn1)CC1(O)CCCCC1)CC1CC1 [Compound 4, N^4-[(1-hydroxycyclohexyl)methyl]-N^4-(2-pyridinylmethyl)-N^1-[1(S)-(cyclohexylmethyl)-2(R),3(S)-dihydroxy-5-methylhexyl]-2(R)-(cyclopropylmethyl)butanediamide] as the molecule, how does the IC50 read?
A: The IC50 was 36 nM.

Q: Which IC50 does the source give for CC(C)C[C@H](O)[C@H](O)[C@H](CC1CCCCC1)NC(=O)[C@@H](CC(=O)N(CCO)CC1(O)CCCCC1)CC1CC1 [Compound 5, N^4-[(1-hydroxycyclohexyl)methyl]-N^4-(2-hydroxyethyl)-N^1-[1(S)-(cyclohexylmethyl)-2(R),3(S)-dihydroxy-5-methylhexyl]-2(R)-(cyclopropylmethyl)butanediamide] here?
A: Its IC50 is 35 nM.

Q: Which IC50 does the source give for CC(C)C[C@H](O)[C@H](O)[C@H](CC1CCCCC1)NC(=O)[C@@H](CC(=O)N(C)CC1(O)CCCCC1)CC1CC1 [Compound 6, N^4-[(1-hydroxycyclohexyl)methyl]-N^4-methyl-N^1-[1(S)-(cyclohexylmethyl)-2(R),3(S)-dihydroxy-5-methylhexyl]-2(R)-(cyclopropylmethyl)butanediamide] here?
A: The IC50 was 38 nM.

Q: How did the IC50 turn out when CC(C)C[C@H](O)[C@H](O)[C@H](CC1CCCCC1)NC(=O)[C@@H](CC(=O)N(CCc1ccccn1)CC1(O)CCCCC1)CC1CC1 [Compound 7, N^4-[(1-hydroxycyclohexyl)methyl]-N^4-[2-(2-pyridinyl)ethyl]-N^1-[1(S)-(cyclohexylmethyl)-2(R),3(S)-dihydroxy-5-methylhexyl]-2(R)-(cyclopropylmethyl)butanediamide] was run?
A: The IC50 was 53 nM.

Q: For CC(C)C[C@H](O)[C@H](O)[C@H](CC1CCCCC1)NC(=O)[C@@H](CC(=O)N(Cc1ccccn1)CC1(O)CCCCCC1)CC1CC1 [Compound 8, N^4-[(1-hydroxycycloheptyl)methyl]-N^4-(2-pyridinylmethyl)-N^1-[1(S)-(cyclohexylmethyl)-2(R),3(S)-dihydroxy-5-methylhexyl]-2(R)-(cyclopropylmethyl)butanediamide], which IC50 is on record?
A: The IC50 was 65 nM.

Q: How did the IC50 turn out when CC(C)C[C@H](O)[C@H](O)[C@H](CC1CCCCC1)NC(=O)[C@@H](CC(=O)NC[C@H](O)c1ccccc1)CC1CC1 [Compound 9, N^4-(R)-(2-hydroxy-2-phenylethyl)-N^1-[1(S)-(cyclohexylmethyl)-2(R),3(S)-dihydroxy-5-methylhexyl]-2(R)-(cyclopropylmethyl)butanediamide] was run?
A: Its IC50 is 72 nM.

Q: With CC(C)C[C@H](O)[C@H](O)[C@H](CC1CCCCC1)NC(=O)[C@@H](CC(=O)NCC(O)c1ccccc1)CC1CC1 (stereo partly drawn) [Compound 10, N^4-(R,S)-(2-hydroxy-2-phenylethyl)-N^1-[1(S)-(cyclohexylmethyl)-2(R),3(S)-dihydroxy-5-methylhexyl]-2(R)-(cyclopropylmethyl)butanediamide] as the molecule, how does the IC50 read?
A: Its IC50 is 74 nM.

Q: With CC(C)C[C@H](O)[C@H](O)[C@H](CC1CCCCC1)NC(=O)[C@@H](CC(=O)N(Cc1ccccc1)C[C@H](O)c1ccccc1)CC1CC1 [Compound 11, N^4-benzyl-N^4-(R)-(2-hydroxy-2-phenylethyl)-N^1-[1(S)-(cyclohexylmethyl)-2(R),3(S)-dihydroxy-5-methylhexyl]-2(R)-(cyclopropylmethyl)butanediamide] as the molecule, how does the IC50 read?
A: Its IC50 is 110 nM.

Q: CC(C)C[C@H](O)[C@H](O)[C@H](CC1CCCCC1)NC(=O)[C@@H](CC(=O)N(Cc1ccccc1)CC(O)c1ccccc1)CC1CC1 (stereo partly drawn) [Compound 12, N^4-benzyl-N^4-(R,S)-(2-hydroxy-2-phenylethyl)-N^1-[1(S)-(cyclohexylmethyl)-2(R),3(S)-dihydroxy-5-methylhexyl]-2(R)-(cyclopropylmethyl)butanediamide] was tested. Which IC50 did it give?
A: The IC50 was 71 nM.

Q: Which IC50 does the source give for CC(C)C[C@H](O)[C@H](O)[C@H](CC1CCCCC1)NC(=O)[C@@H](CC(=O)N[C@@H](CO)Cc1ccccc1)CC1CC1 [Compound 13, N^4-(R)-[1-(hydroxymethyl)-2-phenylethyl]-N^1-[1(S)-(cyclohexylmethyl)-2(R),3(S)-dihydroxy-5-methylhexyl]-2(R)-(cyclopropylmethyl)butanediamide] here?
A: The IC50 was 89 nM.

Q: How did the IC50 turn out when CC(C)C[C@H](O)[C@H](O)[C@H](CC1CCCCC1)NC(=O)[C@@H](CC(=O)N[C@H](CO)Cc1ccccc1)CC1CC1 [Compound 14, N^4-(S)-[1-(hydroxymethyl)-2-phenylethyl]-N^1-[1(S)-(cyclohexylmethyl)-2(R),3(S)-dihydroxy-5-methylhexyl]-2(R)-(cyclopropylmethyl)butanediamide] was run?
A: The IC50 was 79 nM.

Q: For CC(C)C[C@H](O)[C@H](O)[C@H](CC1CCCCC1)NC(=O)[C@@H](CC(=O)N(Cc1ncc[nH]1)CC1(O)CCCCC1)CC1CC1 [Compound 15, N^4-[(1-hydroxycyclohexyl)methyl]-N^4-(1H-imidazol-2-ylmethyl)-N^1-[1(S)-(cyclohexylmethyl)-2(R),3(S)-dihydroxy-5-methylhexyl]-2(R)-(cyclopropylmethyl)butanediamide], which IC50 is on record?
A: The IC50 was 80 nM.

Q: With CC(C)C[C@H](O)[C@H](O)[C@H](CC1CCCCC1)NC(=O)[C@@H](CC(=O)N(CC1CC1)CC1(O)CCCCC1)CC1CC1 [Compound 16, N^4-(cyclopropylmethyl)-N^4-[(1-hydroxycyclohexyl)methyl]-N^1-[1(S)-(cyclohexylmethyl)-2(R),3(S)-dihydroxy-5-methylhexyl]-2(R)-(cyclopropylmethyl)butanediamide] as the molecule, how does the IC50 read?
A: Its IC50 is 89 nM.
